Measured values from US12419918B2, “Pediococcus acidilactici CCFM6432 for alleviating depression, food fermented thereby and application thereof” (Jiangnan University, priority 2019, dated 2025).

Columns and labels:
[1] = tested on: depressed mice; test: Elevated plus-maze test; assay type: in vivo, C57BL/6J mice; conditions: chronic unpredictable mild stress mice; gavage; activities within 10 min
Method: 32 6-week-old male C57BL/6J mice were selected. After one week of adaptation to the environment, the mice were randomly divided into four groups according to body weight: a normal control group, a depression model group, a drug intervention group, and a CCFM6432 intervention group, each containing 8 mice.
Chronic unpredictable stress depression mouse model: 1-2 kinds of stimuli were randomly performed every day, and the performance time of stimuli every day was determined randomly to avoid the circadian rhythm. Each method was used for not more than three times, and the stimuli were performed for five weeks. The stimuli include: (1) fasting for 24 h; (2) water deprivation+empty bottle stimulus for 24 h; (3) tail pinching for 3 min; (4) wet padding for 24 h; (5) immobilization for 1-2 h; (6) 45° tilted cage for 24 h; (7) continuous lighting for 24 h; (8) no padding for 24 h; (9) forced swim for 15 min; and (10) separation for 24 h. […]
At the beginning of the test, a mouse was placed into a maze from the central grid facing a closed arm, and its activities within 10 min were recorded. […] The proportion of time spent in the open arms, the proportion of entries in the open arms, and the total number of entries in the elevated plus maze were calculated. […]

[2] = tested on: regulatory T cells (Tregs); test: Regulatory T cells (CD4+CD25+Foxp3+) in spleen by flow cytometry; assay type: in vivo; conditions: chronic stress mice; sixth weekend
Method: (§1) The mice in Example 2 were euthanized at the sixth weekend. A fresh mouse spleen (about 50 mg) was taken, 5 mL of a pre-chilled PBS buffer was added, and the mouse spleen was cut, ground, and filtered with a 200-mesh nylon sieve to obtain a tissue cell suspension. 2 mL of an erythrocyte lysate was added for lysis for 4 min, and the lysate was removed by centrifugation at room temperature (300×g, 5 min). The obtained cell precipitate was washed with pre-cooled PBS twice, and resuspended with a certain amount of PBS to obtain a lymphocyte suspension. Antibody labeling of regulatory T cells (Tregs) was performed in accordance with the instructions of an eBioscience Mouse Regulatory T cell Staining Kit (Invitrogen Corporation, Carlsbad, CA, USA). The Tregs (CD4+CD25+Foxp3+) were detected by flow cytometry. The contents of IL-1β, IL-6 and TNF-α in the serum were detected with an ELISA kit.

[3] = tested on: IL-1β, IL-6 and TNF-α; test: IL-1β, IL-6 and TNF-α in the serum by ELISA kit; assay type: in vivo; conditions: chronic stress mice; sixth weekend
Method: as §1

[4] = tested on: intestinal microbiome; test: 16S rDNA sequencing of the intestinal microbiome from mouse feces; assay type: in vivo; conditions: depressed mice feces
Text: Fresh feces of the mice in Example 2 was taken at the sixth weekend, and total DNA was extracted from the mouse feces sample using an MP feces kit. Specific operation steps are as follows, mainly referring to the kit instructions. The mouse fecal genome was used as a template, V3-V4 fragments of 16S rDNA were amplified using a forward primer 520F (5′-AYTGGGYDTAAAGNG-3′) and a reverse primer 802R (5′-TACNVGGGTATCTAATCC-3′) as primers, and the length of a target fragment was about 247 bp. After the PCR reaction, all PCR samples in which target bands were observed were electrophoresed again, a 2.0% agarose gel was prepared, and electrophoresis was performed at 120 V for 40 min. […] The DNA concentration of the sample was measured according to a Qubit DNA3.0 kit, then a library was constructed according to a TurSeq DNA LT Sample Preparation Kit and instructions thereof, and finally determination was performed on an Illumina Miseq sequencer according to a MiSeq Regent Kit and instructions thereof. […] The sequences with the similarity greater than 97% were defined as a taxonomic unit (Operational Taxonomic Unit, OTU), and the species was determined by a Ribosomal Database Project (RDP) Naïve Bayesclassifier. The α-diversity and β-diversity of the sample were calculated to assess the bacterial diversity of the sample. […] The β-diversity was assessed by principal co-ordinates analysis (PCoA) (FIG. 9C). […]

## CNCCC(Oc1ccc(C(F)(F)F)cc1)c1ccccc1 (stereo not shown) [Fluoxetine, fluoxetine]
[1]
  entries and time spent in the open arms: had no effect
[2]
  immune state (proportion of Tregs in the spleen): could significantly improve the immune state
[3]
  degree of inflammation (IL-1β, IL-6 and TNF-α in the serum): reduce the degree of inflammation
[4]
  structure of the intestinal microbiome (β-diversity, PCoA): could normalize the structure of the intestinal microbiome
